Laboratory results: ChEMBL document CHEMBL1126496, “4-Aminomethyl chromans: dependence of serotonin and dopamine binding upon aromatic ring substitution” (Bioorg Med Chem Lett, 1993)

Columns and labels:
[1] = biological target: T1, 5-hydroxytryptamine receptor 1A (Homo sapiens, UniProt P08908); experiment: Compound was tested for its binding affinity against 5-hydroxytryptamine 1A receptor using [3H]8-OH-DPAT radioligand
T1 sequence (P08908 whole entry): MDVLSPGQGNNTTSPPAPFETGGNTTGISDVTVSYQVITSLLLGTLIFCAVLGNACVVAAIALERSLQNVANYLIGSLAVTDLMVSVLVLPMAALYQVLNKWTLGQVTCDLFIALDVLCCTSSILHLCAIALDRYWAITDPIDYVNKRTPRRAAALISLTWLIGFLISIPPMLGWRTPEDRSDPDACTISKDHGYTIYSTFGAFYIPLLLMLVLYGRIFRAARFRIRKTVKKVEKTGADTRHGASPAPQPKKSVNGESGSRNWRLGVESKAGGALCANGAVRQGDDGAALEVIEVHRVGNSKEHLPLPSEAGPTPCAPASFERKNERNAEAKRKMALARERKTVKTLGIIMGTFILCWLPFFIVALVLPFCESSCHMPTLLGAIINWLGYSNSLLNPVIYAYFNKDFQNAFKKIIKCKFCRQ

D(2) dopamine receptor = D(2) dopamine receptor (Rattus norvegicus, UniProt P61169); experiment: Compound was tested for its binding affinity against Dopamine receptor D2 using [3H]raclopride radioligand
D(2) dopamine receptor, sequence (P61169 whole entry): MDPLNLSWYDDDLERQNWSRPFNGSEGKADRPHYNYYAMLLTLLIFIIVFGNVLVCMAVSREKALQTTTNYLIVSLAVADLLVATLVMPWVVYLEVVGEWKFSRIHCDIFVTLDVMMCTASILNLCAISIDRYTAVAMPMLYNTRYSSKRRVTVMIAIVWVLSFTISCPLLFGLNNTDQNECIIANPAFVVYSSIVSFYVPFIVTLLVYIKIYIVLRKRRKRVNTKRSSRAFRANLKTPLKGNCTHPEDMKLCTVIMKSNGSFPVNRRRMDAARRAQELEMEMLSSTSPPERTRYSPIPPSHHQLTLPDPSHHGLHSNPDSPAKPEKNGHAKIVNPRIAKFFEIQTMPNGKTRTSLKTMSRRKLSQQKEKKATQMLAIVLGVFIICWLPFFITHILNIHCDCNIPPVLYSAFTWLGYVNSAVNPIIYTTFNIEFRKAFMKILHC

Row | SMILES | Ki [1] [nM] | Ki (D(2) dopamine receptor) [nM]
1 | COc1ccc2c(c1)OCCC2CN1CCC2(CC1)C(=O)NCN2c1ccccc1 (stereo unspecified) | 611 | 274
2 | COc1cccc2c1C(CNCCCc1ccccc1)CCO2 (stereo unspecified) | > 1000 | 279
3 | COc1ccc2c(c1)C(CNCCCc1ccccc1)CCO2 (stereo unspecified) | 93 | > 1000
4 | COc1cccc2c1C(CN1CCC3(CC1)C(=O)NCN3c1ccccc1)CCO2 (stereo unspecified) | 12 | 29
5 | COc1cccc2c1OCCC2CNCCCc1ccccc1 (stereo unspecified) | 7 | 620
6 | COc1cccc2c1OCCC2CN1CCC2(CC1)C(=O)NCN2c1ccccc1 (stereo unspecified) | > 1000 | > 1000
7 | COc1ccc2c(c1)OCCC2CNCCCc1ccccc1 (stereo unspecified) | 28 | > 1000
8 | COc1ccc2c(c1)C(CN1CCC3(CC1)C(=O)NCN3c1ccccc1)CCO2 (stereo unspecified) | 247 | 164
